Earlier results in patent publication US20260216065A1, “PHARMACEUTICAL COMPOSITIONS FOR NASAL DELIVERY” (Therakind Limited, priority 2023, published 2026).

Conditions: room temperature (25° C.)

time for which nasal spray solutions are stable: 48 h
Structure (SMILES): Cc1nccn1CC1CCc2c(c3ccccc3n2C)C1=O (racemic) [ondansetron, (RS)-9-Methyl-3-[(2-methyl-1H-imidazol-1-yl)methyl]-2,3-dihydro-1H-carbazol-4(9H)-one]
